Assay results published in patent US7989590B2, “Peptides that increase collagen or hyaluronic acid production” (Rohto Pharmaceutical Co., Ltd, priority 2005, dated 2011).
Read-outs that look alike come from different tables or passages of the source. Where a SMILES comes first, the peptide text is derived from it. Where no end group is shown, it is not given here.

Legend:
[1] = test system: Fibroblasts derived from human normal skin (CRL-1836; ATCC); assay: Toxicity test: number of viable cells with Cell Counting Kit-8; conditions: for Number of Viable Cells (cells): cells after 72 hours of culture
Source text: (§1) For the cells after the culture solution was collected in Example 6, the number of viable cells was counted in the same manner as in Example 4.
(§2) For the cells after the culture solution was collected in Example 10, the number of viable cells was counted as in the same manner in Example 4.
(§3) For the cells after the culture solution was collected in Example 14, the number of viable cells was counted in the same manner as in Example 4.
(§4) For the cells after the culture solution was collected in Example 17, the number of viable cells was counted in the same manner as in Example 4.
(§5) For the cells after the culture solution was collected in Example 20, the number of viable cells was counted in the same manner as in Example 4.

[2] = test system: Fibroblasts derived from human normal skin (CRL-1836; ATCC)
Source text: as §1, §2, §3, §4, §5

CC(C)C[C@H](N)C(=O)N[C@@H](CCC(=O)O)C(=O)N[C@@H](Cc1c[nH]cn1)C(=O)N[C@@H](C)C(N)=O [C-terminal-Amidated LEHA] (H-LEHA-NH2)
Number of Viable Cells (cells) ([1]; peptide 10 μg/ml): 2.6 × 10^4 cells

CC(C)C[C@H](N)C(=O)N[C@@H](CC(=O)O)C(=O)N[C@@H](Cc1c[nH]cn1)C(=O)N[C@@H](C)C(=O)O [LDHA, Leu-Asp-His-Ala] (H-LDHA-OH)
number of viable cells, result in words ([1]; 1 μg/ml, versus control): no decrease
Number of Viable Cells (cells) ([1]; peptide 1 μg/ml): 3.3 × 10^4 cells

CC(C)C[C@H](N)C(=O)N[C@@H](CCC(=O)O)C(=O)N[C@@H](Cc1c[nH]cn1)C(=O)O [LEH, Leu-Glu-His] (H-Leu-Glu-His-OH)
number of viable cells, result in words [2]: no significant decrease

CC(C)C[C@H](N)C(=O)N[C@@H](CCC(=O)O)C(=O)N[C@@H](Cc1c[nH]cn1)C(=O)N[C@@H](C)C(=O)O [LEHA, Leu-Glu-His-Ala] (H-LEHA-OH)
number of viable cells, result in words ([1]; LEH and LEHA peptides prepared from soy protein, stated in present tense): no significant decrease
Number of Viable Cells (cells) ([1]; peptide 10 μg/ml): 2.9 × 10^4 cells

CC(C)C[C@H](N)C(=O)N[C@@H](CCC(=O)O)C(=O)N[C@@H](CCCCN)C(=O)N[C@@H](C)C(=O)O [LEKA, Leu-Glu-Lys-Ala] (H-LEKA-OH)
number of viable cells, result in words ([1]; 10 μg/ml, versus control): no decrease
Number of Viable Cells (cells) ([1]; peptide 10 μg/ml): 3.6 × 10^4 cells

CC(=O)N[C@@H](CC(C)C)C(=O)N[C@@H](CCC(=O)O)C(=O)N[C@@H](Cc1c[nH]cn1)C(=O)N[C@@H](C)C(=O)O [N-terminal-Acetylated-LEHA] (Ac-LEHA-OH)
Number of Viable Cells (cells) ([1]; peptide 10 μg/ml): 2.8 × 10^4 cells

LEHAF [LEHAF, Leu-Glu-His-Ala-Phe]
number of viable cells, result in words ([1]; 1 or 3 μg/ml, versus control): no significant decrease
Number of Viable Cells (cells) ([1]; peptide 1 μg/ml): 3.0 × 10^4 cells
Number of Viable Cells (cells) ([1]; peptide 3 μg/ml): 3.0 × 10^4 cells
